Measured values as given in patent US12239132B2, “Compounds and methods for increasing soil nutrient availability” (SOUND AGRICULTURE COMPANY, priority 2018, dated 2025).
Entries after “also recorded” stand apart in the source; their conditions may differ.

Tests used:
[1] = system: wheat; test: Wheat plant growth assay (seed treatment); type: in vivo; details: seed treatment 1 ug/seed, four days after emergence, vs mock treated
Method: To determine the effect of AB09 on plants, AB09 was seed treated at a rate of 1 ug/seed onto wheat seeds. Plants were analyzed four days after emergence. […] AB09 was applied to wheat seeds, which were planted in sand and shoots were measured for height at four days post-emergence. Control seeds received a mock treatment. The WinRhizo Pro root scanner and software were used to obtain root length and surface area. AB09 at a rate of lug/seed in acetone was treated onto seeds and the acetone was allowed to fully evaporate. Control seeds were mock treated with acetone. Seeds were planted in wet sand in 50 mL tubes sand, placed under fluorescent lights, and watered with tap water. Seedlings were measured four days post-emergence for shoot height. The WinRhizo Pro root scanner and software were used to obtain root length and surface area.

[2] = system: soil consortia cultures; test: Acetylene reduction method in soil consortia nitrogen free cultures; type: cell-based; details: 25 ug/mL, Burks-N, 72 h, control nd
Method: One flask culture per soil received an AB09 treatment and the other received a control treatment of water. After 72 h of growth, 5 mL of each culture were analyzed for nitrogenase activity using the acetylene reduction method. […] Soil from agricultural areas was air dried and sieved with a 2 mm sieve. Five hundred milligrams of dried, sieved soil was added to 50 mL of Burks-N media in a 250 mL baffled flask. AB09 was added to 25 ug/mL and water was added in equivalent amounts for controls. Flasks were topped with a foam plug and incubated at 30 C, shaking at 100 rpm. After 72 h, 5 mL of the soil culture was transferred to 20 mL autosampler vials and analyzed for ethylene gas with the acetylene reduction technique and GC/MS as described as above.

[3] = system: Azotobacter vinlandii; test: Acetylene reduction method to measure nitrogen fixation in Azotobacter vinlandii; type: cell-based; details: increasing amounts of AB09, Burks-N media, 48 h growth, dose response
Source text: Azotobacter vinlandii is a model free-living nitrogen fixing bacteria, or diazotroph, commonly found in soils. The acetylene reduction technique was used to determine if the nitrogen fixation activity of A. vinlandii is altered due to AB09 treatment. The acetylene reduction technique relies on the non-specific activity of the nitrogenase enzyme (which is responsible for reducing atmospheric dinitrogen gas N2 to ammonia NH3), to reduce acetylene to ethylene. Acetylene and ethylene gases were detected and quantified by GC/MS.
Liquid flask cultures of A. vinlandii were grown in nitrogen-free growth media (Burks-N) and supplemented with varying amounts of AB09 (0 ug/mL culture received a mock treatment of water). Samples were analyzed for acetylene reduction to ethylene after 48 h of growth (cell concentration was normalized prior to the addition of acetylene).
Azotobacter vinlandii cultures starting from OD600=0.02 were grown in liquid N-free bacterial growth media (Burks-N) with varying amounts of AB09 shaking at 28 C. Three flasks of bacteria were grown for each concentration of AB09. After 48 h, cultures were normalized OD600=0.1 and 5 mL of the normalized culture was transferred to gas-tight autosampler vials. […] After 3 hours of incubation (with shaking at 28 C), the gas headspace of the vials was measured via GC/MS for acetylene and ethylene. […]

[4] = system: wheat; test: Wheat growth on nitrogen free media with nitrogen fixing bacterium; type: in vivo; details: AB09 in combination with a nitrogen fixing bacterium, vs control lacking treatment
Method: The ability of the AB09 molecule to control useful soil bacteria metabolism has implications for building integrated technology systems and groundbreaking products. In the lab, AB09 was administered in combination with a nitrogen fixing bacterium to nitrogen free media.

[5] = system: nif operon structural genes (nifH, nifD, and nifK); test: RNA-seq of Azotobacter vinlandii; type: cell-based; details: 25 ug/mL, nitrogen free media, 48 h, RNA-seq (FPKM)
Method: Global gene expression profiles of Azotobacter vinlandii grown in nitrogen free media were compared with and without AB09 treatment using RNA sequencing (RNA-seq).
A starter liquid culture of A. vinlandii in Burks-N media (at OD600=0.02) was divided into six flasks. Three flasks received AB09 at 25 ug/mL and three received a mock treatment. RNA was collected at 48 h of growth. One mL of 48 h cultures of Azotobacter vinlandii were pelleted for 3 minutes as 13,000 rpm. Supernatant was removed and pellets were flash frozen in liquid nitrogen. RNA was extracted with the Norgen RNA extraction kit. Ribo-depletion and sequencing libraries were constructed by Seqmatic, Inc. (Fremont, CA). Illumina single-end reads of 150 nt were mapped using bowtie (-v 2 -k2 -chunkmbs 3000) to the Azotobacter vinelandii CA (ASM38033v1) cds sequences. Custom perl scripts were used to extract the uniquely mapped reads and calculate the read count per million mapped reads (multi and uniquely mapped) per kilobase of gene for each gene.

[6] = system: tomato; test: Field trials in tomato; type: in vivo
Source text: Field trials show both increasing yield and larger, higher quality fruits. Tomato yields were increased by up to 40% in California field trials.

**Q.** With `CC1=CC(Oc2c(C)occc2=O)OC1=O` (centres unmarked) [AB09, maltol lactone] as the compound, how does the root length [1] read?
**A.** The root length was “increase”.

**Q.** And the root surface area [1]?
**A.** Its root surface area is “increase”.

**Q.** And the shoot height [1]?
**A.** Its shoot height is “increase”.

**Q.** And the “% Ethylene (nitrogenase activity)” value ([2]; Alpha soil)?
**A.** The value was 14.5%.

**Q.** And the “% Ethylene (nitrogenase activity)” value ([2]; Bennet soil)?
**A.** The value was 0.7%.

**Q.** And the “% Ethylene (nitrogenase activity)” value ([2]; U of I soil)?
**A.** The value was 4.2%.

**Q.** And the “ethylene gas from acetylene reduction (nitrogenase activity)” value [3]?
**A.** Its value is “increased amounts of ethylene gas”.

**Q.** And the “wheat growth on nitrogen free media” value [4]?
**A.** Its value is “substantially greater; also recorded: more robust growth”.

**Q.** What about the “expression of nif operon structural genes nifH, nifD and nifK over control cultures” value [5] of the same compound?
**A.** The value was “increase”.

**Q.** And the “increase of tomato yields” value ([6]; California field trials)?
**A.** The value was “up to 40%”.

**Q.** What about the “tomato fruit size and number” value ([6]; treated plants) of the same compound?
**A.** The value was “larger and more numerous fruits”.
